Experimental data reported in article PMC11411213 (Journal of Molecular Cell Biology, 2024).

How the values were obtained:
[1] = system: Calu-3 cells
[2] = in vitro; conditions: human
[3] = system: intracellular ROS levels in Calu-3 cells; assay type: cell-based, human
[4] = system: SARS-CoV-2 Delta strain; conditions: mouse, in vivo
[5] = system: pseudotyped vesicular stomatitis virus (VSV) that contains SARS-CoV-2 Spike protein; assay type: cell-based

Molecule	cytotoxic activity (in words) [1]	CC50 [2]	intracellular ROS levels after 24 h treatment [3]	CC50 [1]	further results
COc1cc(Nc2ncc(F)c(Nc3ccc4c(n3)NC(=O)C(C)(C)O4)n2)cc(OC)c1OC [Tamatinib]	cytotoxic in the micromolar range	5.74 ± 0.354 µM	–	–	–
N[C@@H](CCC(=O)N[C@@H](CS)C(=O)NCC(=O)O)C(=O)O [GSH, glutathione]	–	–	reduced ROS levels	–	–
COc1cc2c(Nc3ccc(Br)cc3F)ncnc2cc1OCC1CCN(C)CC1 [Vandetanib]	cytotoxic in the micromolar range	3.76 ± 0.132 µM	–	–	–
O=C(O)c1cc(/N=N/c2ccc(S(=O)(=O)Nc3ccccn3)cc2)ccc1O [Sulfasalazine]	no cytotoxicity at any of the tested concentrations	> 500 µM	–	–	–
imidazole ketone erastin [IKE]	–	–	reduced the basal ROS level	9.29 ± 0.324 µM	intracellular ROS levels after SARS-CoV-2 infection with 24 h pretreatment [3]: prevented virus-induced ROS bursts; intracellular ROS levels over time after administration [3]: biphasic trend, with an initial increase at early time points (0–6 h) followed by a substantial decrease at a later time point (24 h)
MKI-1	cytotoxic in the high nanomolar range	–	–	0.892 ± 0.001 µM	–
N-acetyl cysteine [NAC]	–	–	reduced ROS levels	> 5000 µM	IHC analysis of the N protein in the lungs [4]: confirmed by immunohistochemistry; levels of viral transcripts N and RdRp in lungs (qPCR) [4]: significantly lower levels of viral transcripts than untreated mice; effect on SARS-CoV-2 entry (Spike pseudovirus luciferase) [5]: did not observe any effect
